According to patent publication US20260216238A1, “TETRATHIOMOLYBDIC ACID FOR USE IN TREATING COPPER METABOLISM-ASSOCIATED DISEASES OR DISORDERS (WILSON DISEASE)” (Alexion Pharmaceuticals, Inc., priority 2023, published 2026):
Read-outs that look alike come from different tables or passages of the source.

Experiments:
[1] = system: patients with Wilson disease (WD)
Method: This assessment is also applicable to SoC treatments. In addition, plasma Cp, CpC, plasma total copper, and LBC were measured with AUEC calculated for plasma total copper and LBC.
The LBC method measures exchangeable plasma copper that is not bound to either Cp or TPC.
Pharmacodynamics: Blood samples were collected to directly measure plasma total copper, PUF copper, dNCC, and LBC. Calculations may be performed for cNCC and cNCCcorrected, the latter of which is non-ceruloplasmin-bound and non-molybdenum-albumin-bound copper.

[2] = system: patients with Wilson disease (WD); details: FIG. 23; TTM versus SoC chelator therapy
Excerpt: Urine samples were collected for analysis of urine copper and molybdenum.

[3] = human, in vivo
Excerpt: Pharmacokinetics: Blood samples for PK analysis were collected to measure plasma total molybdenum and plasma ultrafiltrate (PUF) molybdenum.

[4] = system: participants with cirrhosis at baseline
Excerpt: Study 205 is registered with ClinicalTrials.gov, number NCT04422431, and incorporated by reference in its entirety.

[5] = system: patients with Wilson disease (WD); test: Clinical Global Impression-Severity scale (CGI-S); format: in vivo, human; details: for CGI-S (1 to 7, 1 is normal) change from baseline, LSM / CGI-S (1 to 7, 1 is normal) change from baseline, Mean: Study 301 TTM long term set
Excerpt: (§1) Clinical Global Impression-[…]: The Clinical Global Impression (CGI) rating scales were commonly used measures of symptom severity, treatment response, and the efficacy of treatments in treatment studies of adult and pediatric patients with mental disorders.
The Clinical Global Impression-Severity scale (CGI-S) is a 7-point scale that requires the clinician to rate the severity of the patient's illness at the time of assessment, relative to the clinician's past experience with patients who have the same diagnosis. Considering total clinical experience, a patient was assessed on severity of illness at the time of rating as: 1, normal, not at all ill; 2, borderline ill; 3, mildly ill; 4, moderately ill; 5, markedly ill; 6, severely ill; or 7, extremely ill.

[6] = system: patients with Wilson disease (WD); test: Clinical Global Impression-Improvement scale (CGI-I); format: in vivo, human; details: for Transformed CGI-I (−3 to 3), LSM / Transformed CGI-I (−3 to 3), Mean: Study 301 TTM long term set
Excerpt: as §1
While transformed CGI-I (TCGI-I) assesses how the WD patients' condition changed compared to baseline, CGI-I may indicate the overall clinical improvement of the patients in the study compared to baseline for each treatment arm.

[7] = system: patients with WD; details: cited from earlier work
[8] = system: patients with Wilson disease (WD); test: UWDRS Part III minimal clinically important difference (MCID) responders and net promoter score; format: in vivo, human
Excerpt: To calculate net promoter scores, minimal clinically important differences (MCID) were first defined.
Therefore, distribution-based methods were used to compute MCID threshold, half standard deviation (SD), and standard error of measurement (SEM) for the full Study 301 population and the Subpart E population. […] The difference between those two proportions represented the “net promoter score.”

[9] = Subpopulation E, Baseline, TTM N=104, SoC N=56
[10] = Subpopulation E, Week 48, TTM N=89, SoC N=47
[11] = Subpopulation E, Week 48, TTM N=78, SoC N=39

bis-choline tetrathiomolybdate [TTM]
AUEC(0-48 week) LBC, Mean ([1]; Adolescent): 1.5 mmol/L | AUEC(0-48 week) LBC, Median ([1]; Adolescent): 1.2 mmol/L | AUEC(0-48 week) PTC (plasma total copper), Mean ([1]; Adolescent): 7.5 mmol/L | AUEC(0-48 week) PTC (plasma total copper), Median ([1]; Adolescent): 5.4 mmol/L | AUEC(0-48 week) dNCC, Mean ([1]; Adolescent): 2.7 mmol/L | AUEC(0-48 week) dNCC, Median ([1]; Adolescent): 2.3 mmol/L | AUEC(0-48 week) LBC, Mean ([1]; Adult): 1.8 mmol/L | AUEC(0-48 week) LBC, Median ([1]; Adult): 1.2 mmol/L | AUEC(0-48 week) PTC (plasma total copper), Mean ([1]; Adult): 7.8 mmol/L | AUEC(0-48 week) PTC (plasma total copper), Median ([1]; Adult): 7.3 mmol/L | AUEC(0-48 week) dNCC, Mean ([1]; Adult): 3.2 mmol/L | AUEC(0-48 week) dNCC, Median ([1]; Adult): 2.2 mmol/L | 24-hour urinary copper [2]: lower with TTM than SoC chelator therapy | Daily Mean AUC(0-48 weeks) PUF Mo, Mean [3]: 0.1 mmol/L | participants with cirrhosis at baseline who maintained liver function (albumin levels) ([4]; in vivo): 87% | cirrhotic participants whose albumin levels returned to the normal range ([4]; of the 13 who experienced changes in liver function): 7 participants | CGI-S (1-7, 1 is normal), Change from Baseline at 48 weeks, LSM ([5]; Study 301 Full Analysis Set): −0.3 | CGI-S (1-7, 1 is normal), Change from Baseline at 48 weeks, Mean ([5]; Study 301 Full Analysis Set): −0.5 | CGI-S, Max [5, 9]: 6 | CGI-S, Mean [5, 9]: 2.9 | CGI-S, Min [5, 9]: 1, | CGI-S, Change from Baseline, LSM ([5]; Subpopulation E, Week 48): −0.4 | CGI-S, Change from Baseline, LSM Diff (SE) (TTM vs SoC) ([5]; Subpopulation E, Week 48): −0.2 (0.13) | CGI-S, Change from Baseline, Max [5, 10]: 1 | CGI-S, Change from Baseline, Mean [5, 10]: −0.4 | CGI-S, Change from Baseline, Median [5, 10]: 0.0 | CGI-S, Change from Baseline, Min [5, 10]: −3, | CGI-S, Change from Baseline, Q1 [5, 10]: −1.0, | CGI-S, Change from Baseline, Q3 [5, 10]: 0.0 | CGI-S, Difference at 48 weeks, LSM ([5]; TTM vs SoC, P 0.2290): −0.2 | CGI-S (1 to 7, 1 is normal) change from baseline, LSM ([5]; Week 24): −0.3 | CGI-S (1 to 7, 1 is normal) change from baseline, Mean ([5]; Week 24): −0.2 | CGI-S (1 to 7, 1 is normal) change from baseline, LSM ([5]; Week 48): −0.4 | CGI-S (1 to 7, 1 is normal) change from baseline, Mean ([5]; Week 48): −0.5 | CGI-S (1 to 7, 1 is normal) change from baseline, LSM ([5]; Week 72): −0.5 | CGI-S (1 to 7, 1 is normal) change from baseline, Mean ([5]; Week 72): −0.6 | CGI-S (1 to 7, 1 is normal) change from baseline, LSM ([5]; Week 96): −0.5 | CGI-S (1 to 7, 1 is normal) change from baseline, Mean ([5]; Week 96): −0.6 | CGI-S (1 to 7, 1 is normal) change from baseline, LSM ([5]; Week 120): −0.7 | CGI-S (1 to 7, 1 is normal) change from baseline, Mean ([5]; Week 120): −0.6 | CGI-S (1 to 7, 1 is normal) change from baseline, LSM ([5]; Week 144): −0.6 | CGI-S (1 to 7, 1 is normal) change from baseline, Mean ([5]; Week 144): −0.6 | T-CGI-I (−3 to 3, −3 is very much improved) at 48 weeks, LSM ([6]; Study 301 Full Analysis Set): −0.7 | T-CGI-I (−3 to 3, −3 is very much improved) at 48 weeks, Mean ([6]; Study 301 Full Analysis Set): −0.7 | Transformed Global Improvement (CGI-I), Change from Baseline, LSM ([6]; Subpopulation E, Week 48): −0.7 | Transformed Global Improvement (CGI-I), Change from Baseline, LSM Diff (TTM vs SoC) ([6]; Subpopulation E, Week 48): −0.5 | Transformed Global Improvement (CGI-I), Change from Baseline, Max [6, 11]: 1 | Transformed Global Improvement (CGI-I), Change from Baseline, Mean [6, 11]: −0.7 | Transformed Global Improvement (CGI-I), Change from Baseline, Median [6, 11]: 0.0 | Transformed Global Improvement (CGI-I), Change from Baseline, Min [6, 11]: −3, | Transformed Global Improvement (CGI-I), Change from Baseline, Q1 [6, 11]: −1.0, | Transformed Global Improvement (CGI-I), Change from Baseline, Q3 [6, 11]: 0.0 | T-CGI-I, Difference at 48 weeks, LSM ([6]; TTM vs SoC, P 0.0316): −0.3 | CGI-I, LSM difference (SE) TTM versus SoC ([6]; W0-W48, cohort 1 incomplete response or intolerant, p=0.0051): −0.4 (0.15) | Transformed CGI-I (−3 to 3), LSM ([6]; Week 24): −0.6 | Transformed CGI-I (−3 to 3), Mean ([6]; Week 24): −0.5 | Transformed CGI-I (−3 to 3), LSM ([6]; Week 48): −0.8 | Transformed CGI-I (−3 to 3), Mean ([6]; Week 48): −0.7 | Transformed CGI-I (−3 to 3), LSM ([6]; Week 72): −0.6 | Transformed CGI-I (−3 to 3), Mean ([6]; Week 72): −0.5 | Transformed CGI-I (−3 to 3), LSM ([6]; Week 96): −0.6 | Transformed CGI-I (−3 to 3), Mean ([6]; Week 96): −0.5 | Transformed CGI-I (−3 to 3), LSM ([6]; Week 120): −0.7 | Transformed CGI-I (−3 to 3), Mean ([6]; Week 120): −0.7 | Transformed CGI-I (−3 to 3), LSM ([6]; Week 144): −0.8 | Transformed CGI-I (−3 to 3), Mean ([6]; Week 144): −0.7 | reduction of mean serum cNCCcorrected compared with baseline ([7]; Study 201, Week 24, p<0.0001): 72% | patients with reversible liver function test elevations ([7]; human, in vivo): 39% | patients improved by ≥5 points in UWDRS Part III ([8]; Study 301, by 48 weeks): 44.8% | UWDRS Part III SD MCID Achievers, Net Promoter Score ([8]; improving minus worsening): 16% | UWDRS Part III SE MCID Achievers, Net Promoter Score ([8]; improving minus worsening): 20% | UWDRS Part III SD MCID Achievers, Improving ([8]; in vivo): 22% | UWDRS Part III SD MCID Achievers, Worsening ([8]; in vivo): 6% | UWDRS Part III SE MCID Achievers, Improving ([8]; in vivo): 28% | UWDRS Part III SE MCID Achievers, Worsening ([8]; in vivo): 8% | patients improved at 4-point change threshold in UWDRS Part III ([8]; incomplete and/or intolerant subgroup, 48 weeks): 43.1%
